# Legend:
# [1] = target: T1, recombinant human dopamine D2L receptors (Homo sapiens, UniProt P14416); assay: Dopamine Binding Assay; settings: HEK-D2L cell membranes, 150 pM [3H]-spiperone, Cheng and Prusoff
# T1 construct: expressed in transfected cells; host or cells: HEK-293 (HEK-D2L), membrane homogenates
# Procedure: HEK-293 cells that stably express recombinant human dopamine D2L receptors (HEK-D2L cells) were grown at 37° C. in 5% CO2 as a monolayer in medium consisting of EMEM supplemented with 10% fetal bovine serum and G418 sulfate (500 μg/ml). To prepare membranes for radioligand binding experiments, cells were rinsed twice with phosphate-buffered saline (138 mM NaCl, 4.1 mM KCl, 5.1 mM Na2PO4, 1.5 mM KH2PO2 11.1 mM glucose, pH 7.4), and incubated for 5-10 min. at 4° C. in hypotonic lysis buffer consisting of 10 mM Tris (pH 7.4) and 5 mM EDTA. Cells were transferred from plates to polypropylene tubes (16×100 mm), homogenized and centrifuged at 32,000×g for 20 min. Following centrifugation, pellets were resuspended by homogenization in buffer consisting of 50 mM Tris (pH 7.7 at 25° C.) and 1 mM EDTA. Homogenates were stored at −80° C. until needed. On the day of an experiment, homogenates were thawed then centrifuged at 32,000×g for 20 min. Following centrifugation, supernatants were discarded and pellets were resuspended in assay buffer consisting of 50 mM Tris (pH 7.4 at 25° C.), 1 mM EDTA and 6 mM MgCl2. Membrane homogenates (˜5 μg) were incubated with 150 pM [^3H]-spiperone (Amersham Life Science) and increasing concentrations of test compounds for 1.5 hr at 22° C. in a total volume of 400 μl. Reactions were stopped by addition of ice-cold assay buffer and filtration over glass fiber filters (Whatman GFB, pre-soaked in 0.05% polyethylenimine) using a microtitre format Brandel cell harvester. Filters were washed with 3 ml of ice-cold assay buffer. Non-specific binding was defined with 2 μM (+)butaclamol. Ki values were calculated using the method of Cheng and Prusoff (1973). Protein concentrations were determined by the method of Bradford (1976) with BSA as a standard.
# [2] = target: T2, human serotonin transporters (Homo sapiens, UniProt P31645); assay: Serotonin Transporter Binding Assay; settings: HEK-hSERT cell membranes, 1 nM [3H]-citalopram, Cheng and Prusoff; read-out: SERT Ki
# T2 construct: expressed in transfected cells; host or cells: HEK-293 (HEK-hSERT), membrane homogenates
# Procedure: HEK-293 cells that stably express human serotonin transporters (HEK-hSERT cells) were grown at 37° C. in 5% CO2 as a monolayer in medium consisting of EMEM supplemented with 10% fetal bovine serum and G418 sulfate (500 μg/ml). To prepare membranes for radioligand binding experiments, cells were rinsed twice with phosphate-buffered saline (138 mM NaCl, 4.1 mM KCl, 5.1 mM Na2PO4, 1.5 mM […], 11.1 mM glucose, pH 7.4). Cells were transferred from plates to polypropylene tubes (16×100 mm), centrifuged at 1,200×g for 5 min and were frozen at −80° C. until assay. Following centrifugation, pellets were resuspended by homogenization in buffer consisting of 50 mM Tris (pH 7.7 at 25° C.), 120 mM NaCl and 5 mM KCl and then centrifuged at 32,000×g for 10 min. Following centrifugation, supernatants were discarded and pellets were resuspended in buffer consisting of 50 mM Tris (pH 7.4 at 25° C.), 150 mM NaCl and 5 mM KCl. Membrane homogenates (200 μl/plate) were incubated with 1 nM [^3H]-citalopram (specific activity=85 Ci/mmol) and increasing concentrations of test compounds for 1 hr at 25° C. in a total volume of 250 μl. The assay buffer consisted of 50 mM Tris (pH 7.4 at 25° C.), 120 mM NaCl and 5 mM KCl (pH 7.4 with conc. HCl). Plates were incubated for 1 hr at 25° C., then filtered through 0.5% PEI treated Whatman GF/B filters using a Brandel cell harvester. Filters were washed three times with 3 ml of ice-cold tris wash buffer. Non-specific binding was defined with 10 μM fluoxetine. Amount of radioligand bound in the presence and absence of competitor was analyzed by plotting (−)log drug concentration versus the amount of radioligand specifically bound. The midpoint of the displacement curve (IC50, nM), signifies the potency. Ki values were calculated using the method of Cheng and Prusoff (1973).
# T1 sequence (P14416 whole entry): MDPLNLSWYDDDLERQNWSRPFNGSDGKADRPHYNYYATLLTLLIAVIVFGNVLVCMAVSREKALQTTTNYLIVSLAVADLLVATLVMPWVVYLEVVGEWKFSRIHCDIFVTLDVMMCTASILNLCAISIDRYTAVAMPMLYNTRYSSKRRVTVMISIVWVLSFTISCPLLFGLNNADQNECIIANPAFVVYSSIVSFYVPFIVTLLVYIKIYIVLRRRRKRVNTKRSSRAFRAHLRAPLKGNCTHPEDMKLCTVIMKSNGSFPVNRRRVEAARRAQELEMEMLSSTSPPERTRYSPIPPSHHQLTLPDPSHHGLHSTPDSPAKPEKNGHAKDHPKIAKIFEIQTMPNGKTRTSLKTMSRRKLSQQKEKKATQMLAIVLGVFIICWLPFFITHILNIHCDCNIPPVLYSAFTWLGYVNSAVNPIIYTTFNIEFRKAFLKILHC
# T2 sequence (P31645 whole entry): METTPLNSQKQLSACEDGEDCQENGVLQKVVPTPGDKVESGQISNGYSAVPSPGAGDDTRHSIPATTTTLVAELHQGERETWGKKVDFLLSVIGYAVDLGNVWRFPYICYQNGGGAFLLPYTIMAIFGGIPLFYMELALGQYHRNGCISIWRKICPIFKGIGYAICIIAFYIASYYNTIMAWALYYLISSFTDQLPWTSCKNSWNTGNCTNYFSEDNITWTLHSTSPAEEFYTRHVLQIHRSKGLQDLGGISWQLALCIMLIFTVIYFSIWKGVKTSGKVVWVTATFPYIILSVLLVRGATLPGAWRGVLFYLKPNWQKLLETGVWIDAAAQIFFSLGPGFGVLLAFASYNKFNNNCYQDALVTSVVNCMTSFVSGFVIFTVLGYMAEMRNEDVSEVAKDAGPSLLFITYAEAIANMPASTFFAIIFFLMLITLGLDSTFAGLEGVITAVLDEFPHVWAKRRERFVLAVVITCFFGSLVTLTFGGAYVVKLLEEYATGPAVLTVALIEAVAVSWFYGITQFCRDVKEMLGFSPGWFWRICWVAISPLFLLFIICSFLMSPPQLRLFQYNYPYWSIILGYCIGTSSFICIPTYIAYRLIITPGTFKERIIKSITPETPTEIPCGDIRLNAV
Compound,Ki [1] [nM],Ki [2] [nM]
"COc1ccccc1CNC[C@@H]1C[C@H]1c1c[nH]c2ccc(C#N)cc12 (relative stereo) [Example 8, trans-2-[5-Cyanoindol-3-yl]-1-[N-(2-methoxybenzyl)aminomethyl]-cyclopropane]",100 to 1000,1 to 10
"COc1cccc(CNC[C@@H]2C[C@H]2c2c[nH]c3ccc(C#N)cc23)c1 (relative stereo) [Example 9, trans-2-[5-Cyanoindol-3-yl]-1-[N-(3-methoxybenzyl)aminomethyl]-cyclopropane]",100 to 1000,1 to 10
"COc1ccc(CNC[C@@H]2C[C@H]2c2c[nH]c3ccc(C#N)cc23)cc1 (relative stereo) [Example 10, trans-2-[5-Cyanoindol-3-yl]-1-[N-(4-methoxybenzyl)amnomethyl]-cyclopropane]",100 to 1000,1 to 10
"N#Cc1ccc2[nH]cc([C@@H]3C[C@H]3CNCc3ccccc3F)c2c1 (relative stereo) [Example 11, trans-2-[5-Cyanoindol-3-yl]-1-[N-(2-fluorobenzyl)aminomethyl]-cyclopropane]",100 to 1000,1 to 10
"N#Cc1ccc2[nH]cc([C@@H]3C[C@H]3CNCCc3cccnc3)c2c1 (relative stereo) [Example 20, trans-2-[5-Cyanoindol-3-yl]-1-[N-2-(3-pyridyl)ethylaminomethyl]-cyclopropane]",> 1000,1 to 10
N#Cc1ccc2[nH]cc([C@@H]3C[C@H]3CNCCc3cccs3)c2c1 (relative stereo) [Example 25],100 to 1000,1 to 10
"N#Cc1ccc2[nH]cc([C@@H]3C[C@H]3CNCCc3c[nH]c4ccccc34)c2c1 (relative stereo) [Example 27, trans-2-[5-Cyanoindol-3-yl]-1-[N-2-(3-indolyl)ethylaminomethyl]-cyclopropane]",10 to 100,1 to 10
"N#Cc1ccc2[nH]cc([C@@H]3C[C@H]3CNC3CCCCC3)c2c1 (relative stereo) [Example 29, trans-2-[5-Cyanoindol-3-yl]-1-[N-cyclohexylaminomethyl]-cyclopropane]",10 to 100,10 to 100
CCCNC[C@@H]1C[C@H]1c1c[nH]c2ccc(C#N)cc12 (relative stereo) [Example 45],100 to 1000,10 to 100
CCN(CC)C[C@@H]1C[C@H]1c1c[nH]c2ccc(C#N)cc12 (relative stereo) [Example 48],100 to 1000,1 to 10
"Fc1ccc2[nH]cc([C@@H]3C[C@H]3CNCc3ccccc3)c2c1 (relative stereo) [Example 49, trans-1-(N-Benzlyaminomethyl)-2-[5-fluoroindol-3-yl]-cyclopropane]",100 to 1000,10 to 100
"CN(CCc1ccccc1)C[C@@H]1C[C@H]1c1c[nH]c2ccc(F)cc12 (relative stereo) [Example 78, trans-2-[5-Fluoroindol-3-yl]-1-[N,N-methyl-phenylethylaminomethyl]-cyclopropane]",100 to 1000,1 to 10
CCN(CC)C[C@@H]1C[C@H]1c1c[nH]c2ccc(F)cc12 (relative stereo) [Example 86],100 to 1000,10 to 100
"CCOC(=O)NCCN(C)C[C@@H]1C[C@H]1c1c[nH]c2ccc(C#N)cc12 (relative stereo) [Example 87, trans-2-[5-Cyanoindol-3-yl]-1-[N,N-methyl-2-amino(ethylcarbamoyl)ethylaminomethyl]-cyclopropane]",100 to 1000,10 to 100

# Other lines, results leading:
Ki [1] [nM],Ki [2] [nM],Compound
10 to 100,1 to 10,"N#Cc1ccc2[nH]cc([C@@H]3C[C@H]3CNCCc3ccccc3F)c2c1 (relative stereo) [Example 17, trans-2-[5-Cyanoindol-3-yl]-1-[N-2-(2-fluorophenyl)ethylaminomethyl]-cyclopropane]"
10 to 100,1 to 10,"N#Cc1ccc2[nH]cc([C@@H]3C[C@H]3CNCCc3cccc(F)c3)c2c1 (relative stereo) [Example 18, trans-2-[5-Cyanoindol-3-yl]-1-[N-2-(3-fluorophenyl)ethylaminomethyl]-cyclopropane]"
10 to 100,1 to 10,"N#Cc1ccc2[nH]cc([C@@H]3C[C@H]3CNCCc3ccc(F)cc3)c2c1 (relative stereo) [Example 19, trans-2-[5-Cyanoindol-3-yl]-1-[N-2-(4-fluorophenyl)ethylaminomethyl]-cyclopropane]"
10 to 100,10 to 100,"N#Cc1ccc2[nH]cc([C@@H]3C[C@H]3CNCCc3c[nH]cn3)c2c1 (relative stereo) [Example 23, trans-2-[5-Cyanoindol-3-yl]-1-[N-2-(4-imidazolyl)ethylaminomethyl]-cyclopropane]"
10 to 100,10 to 100,"N#Cc1ccc2[nH]cc([C@@H]3C[C@H]3CN3CCc4ccccc4C3)c2c1 (relative stereo) [Example 37, trans-2-[5-Cyanoindol-3-yl]-1-[1,2,3,4-tetrahydro-1H-isoquinolin-2-yl-methyl]-cyclopropane]"
10 to 100,1 to 10,"CN(CCc1ccccc1)C[C@@H]1C[C@H]1c1c[nH]c2ccc(C#N)cc12 (relative stereo) [Example 39, trans-2-[5-Cyanoindol-3-yl]-1-[N,N-methyl-phenylethylaminomethyl]-cyclopropane]"
10 to 100,1 to 10,N#Cc1ccc2[nH]cc([C@@H]3C[C@H]3CNCCc3ccccc3)c2c1 (relative stereo) [Example 40]
10 to 100,1 to 10,COc1ccccc1CCNC[C@@H]1C[C@H]1c1c[nH]c2ccc(C#N)cc12 (relative stereo) [Example 41]
10 to 100,1 to 10,COc1cccc(CCNC[C@@H]2C[C@H]2c2c[nH]c3ccc(C#N)cc23)c1 (relative stereo) [Example 42]
10 to 100,1 to 10,COc1ccc(CCNC[C@@H]2C[C@H]2c2c[nH]c3ccc(C#N)cc23)cc1 (relative stereo) [Example 43]
1 to 10,1 to 10,N#Cc1ccc2[nH]cc([C@@H]3C[C@H]3CNCCOc3ccccc3)c2c1 (relative stereo) [Example 44]
10 to 100,10 to 100,"Fc1ccc2[nH]cc([C@@H]3C[C@H]3CN3CCc4ccccc4C3)c2c1 (relative stereo) [Example 76, trans-1-[1,2,3,4-tetrahydro-1H-isoquinolin-2-yl-methyl]-2-[5-fluoroindol-3-yl]-cyclopropane]"
10 to 100,10 to 100,COc1ccccc1CCNC[C@@H]1C[C@H]1c1c[nH]c2ccc(F)cc12 (relative stereo) [Example 80]
10 to 100,10 to 100,COc1cccc(CCNC[C@@H]2C[C@H]2c2c[nH]c3ccc(F)cc23)c1 (relative stereo) [Example 81]
10 to 100,10 to 100,COc1ccc(CCNC[C@@H]2C[C@H]2c2c[nH]c3ccc(F)cc23)cc1 (relative stereo) [Example 82]
1 to 10,1 to 10,Fc1ccc2[nH]cc([C@@H]3C[C@H]3CNCCOc3ccccc3)c2c1 (relative stereo) [Example 83]
